How the values were obtained:
[1] = Case report Example 5: blood pressure in diabetic hypertensive; format: in vivo, human; details: lisinopril 20 mg twice a day, over 3 days; before 188/92
Description: The patient with diabetes requiring insulin therapy also has a long history of elevated blood pressure. The blood pressure was previously controlled using lisinopril 20 mg. daily. […] The dose of lisinopril was lowered to 20 mg once a day.

[2] = intravenous administration; cited from earlier work

Row | Compound | blood pressure [1] | blood flow in peripheral vascular disease [2]
1 | NCCCC[C@H](N[C@@H](CCc1ccccc1)C(=O)O)C(=O)N1CCC[C@H]1C(=O)O [lisinopril] | 145/92 | 
2 | N[C@@H](CCC(=O)N[C@@H](CS)C(=O)NCC(=O)O)C(=O)O [reduced glutathione, gamma-glutamyl-cysteinyl-glycine] |  | benefit in improving blood flow

— patent US8679530B2 (Your Energy Systems, LLC, priority 2004, dated 2014)
